pIC50: −log10 of the molar value. Like-named read-outs stand apart in the source and are kept apart here.
Columns and labels:
A2780 cells = assay: Determination of cell activity (CellTiter-Glo Luminescent Cell Viability Assay); type: cell-based; conditions: A2780 cells, 7 days treatment, CellTiter-Glo, read-out: IC50
Description: To examine the effect of compounds on cell viability, ATP was directly quantified using the CellTiter-Glo Luminescent Cell Viability Assay (Promega) to determine the number of viable cells.
Cell density was selected based on optimal signal intensity and growth curve for the inoculation of A2780 cells. The cells were incubated at 37° C. and 5% C02 overnight. Cells were treated with blank group, DMSO group and compound group, respectively, at 37° C. and 5% C02 for 7 days. The prepared solutions were added to cell wells according to the instructions of CellTiter-Glo (Promega), and shaken at a speed of 400 g for 2 min. Then, the solutions were centrifuged at 1000 g for 2 min and incubated at rest for 30 min to ensure a complete reaction. […] readings were taken using a multi-label microplate reader (Perkin Elmer) to calculate IC50 values.

[1] = system: RNA polymerase I (RNA pol I); assay: Compound selectivity by real-time fluorescent quantitative PCR in A549 cells: genes regulated by RNA pol I; type: cell-based; conditions: for Expression of genes regulated by RNA pol I (18S, 28S): 72 h, qPCR ΔΔCt, significance by T-Test
Description: (§1) Tumor cells A549 were plated at an appropriate density and incubated overnight. The cells were treated with compounds or DMSO for 72 h, and total cellular RNA was extracted according to the instructions of TaqMan™ Fast Advanced Cells-to-CT™ Kit (Invitrogen #A35377). Briefly, the cells were washed with PBS twice. Supernatants were discarded, and 50 μL/well of lysis buffer was added. The cells were incubated at room temperature for 5 min. Then, 5 μL of stop buffer was added. The mixture was left to stand for 2 min and then placed on ice in preparation for reverse transcription and extraction of cDNA. QPCR was carried out according to the requirements of TaqMan® Fast Advanced Master Mix (Invitrogen). Eukaryotes have three different nuclear RNA polymerases, namely RNA polymerase I (RNA pol I), RNA polymerase II (RNA pol II) and RNA polymerase III (RNA pol III). To eliminate the effect of the compounds on the inhibition of the activity of other RNA polymerases, we selected 18S rRNA, 28S rRNA; β-actin; 5S rRNA; ND1, CYTB and COX1 transcriptionally regulated by RNA Pol I, II, III and POLRMT. Whether the mRNA levels of these genes were inhibited was detected. The qPCR results were analyzed by the ΔΔCt method and statistically analyzed by Graphpad8.0. The significant differences were statistically analyzed by T-Test.

MOLM-13-luc tumor cells = assay: In vivo pharmacodynamic test, MOLM-13-luc orthotopic mouse model of leukemia
Description: The efficacy of compounds was evaluated using an orthotopic mouse model of leukemia. […] After the cell confluence reached 80%-90%, the cells were subcultured into separate flasks. The tumor cells in the logarithmic growth phase were used for the inoculation of tumors in vivo. Approximately 7 days after the inoculation of the tumor cells, according to the body weights of the animals and optical signal intensity at tumor sites, the animals were randomly divided into 4 groups, namely solvent control group [5% TPGS in PH 8 buffer (50 mM potassium dihydrogen phosphate buffer), BID, intragastric administration], IMT1B (50 mpk, BID, intragastric administration), A1-1-5 (25 mpk, BID, intragastric administration) and A1-1-5 (50 mpk, BID, intragastric administration), with 10 animals in each group. Tumor growth was monitored, and behavioral changes in the animals were also monitored.
During the experiment, all the animals were weighed twice a week. The percentage of body weight change (BW change, %) was calculated using the following formula: BW change=(BW Day X/BW Day 0)×100, where BW Day X is the body weight of the animals on the day of administration, and BW Day 0 is the body weight of the animals on the day of grouping.
Mice were imaged twice a week according to their status using the small animal living imaging system IVIS Lumina III (Perkin Elmer). The signal intensity of the bioluminescence imaging (BLI, unit: photons/s) at tumor cell inoculation sites in mice was monitored, which served as the main indicator for evaluating tumor growth and the efficacy of drugs. The specific operation procedures were as follows.
After the mice were intraperitoneally injected with D-luciferin (manufactured by Perkin Elmer, 15 mg/mL solution, injected at […] according to the body weight of experimental animals), the animals were subjected to inhalation anesthesia using 1%-2% isoflurane. Approximately 10 minutes after the injection of D-luciferin, the animals were imaged using IVIS Lumina III. The imaging results were analyzed and processed using the Living Image software (Perkin Elmer), and the optical signal intensity in the ROI (regions of interest) of the whole body of each animal was calculated. […] The administration and imaging were continued for the animals in other groups. At the endpoint of the experiment, the median survival times of all groups throughout the experiment were calculated, and the curves were plotted.

POLRMT = biological target: T1, POLRMT (Homo sapiens, UniProt O00411); assay: Compound selectivity by real-time fluorescent quantitative PCR in A549 cells: genes regulated by POLRMT; type: cell-based; conditions: 72 h, qPCR ΔΔCt, significance by T-Test
T1 construct: endogenous in cells; host or cells: A549
T1 sequence (O00411 42-1230): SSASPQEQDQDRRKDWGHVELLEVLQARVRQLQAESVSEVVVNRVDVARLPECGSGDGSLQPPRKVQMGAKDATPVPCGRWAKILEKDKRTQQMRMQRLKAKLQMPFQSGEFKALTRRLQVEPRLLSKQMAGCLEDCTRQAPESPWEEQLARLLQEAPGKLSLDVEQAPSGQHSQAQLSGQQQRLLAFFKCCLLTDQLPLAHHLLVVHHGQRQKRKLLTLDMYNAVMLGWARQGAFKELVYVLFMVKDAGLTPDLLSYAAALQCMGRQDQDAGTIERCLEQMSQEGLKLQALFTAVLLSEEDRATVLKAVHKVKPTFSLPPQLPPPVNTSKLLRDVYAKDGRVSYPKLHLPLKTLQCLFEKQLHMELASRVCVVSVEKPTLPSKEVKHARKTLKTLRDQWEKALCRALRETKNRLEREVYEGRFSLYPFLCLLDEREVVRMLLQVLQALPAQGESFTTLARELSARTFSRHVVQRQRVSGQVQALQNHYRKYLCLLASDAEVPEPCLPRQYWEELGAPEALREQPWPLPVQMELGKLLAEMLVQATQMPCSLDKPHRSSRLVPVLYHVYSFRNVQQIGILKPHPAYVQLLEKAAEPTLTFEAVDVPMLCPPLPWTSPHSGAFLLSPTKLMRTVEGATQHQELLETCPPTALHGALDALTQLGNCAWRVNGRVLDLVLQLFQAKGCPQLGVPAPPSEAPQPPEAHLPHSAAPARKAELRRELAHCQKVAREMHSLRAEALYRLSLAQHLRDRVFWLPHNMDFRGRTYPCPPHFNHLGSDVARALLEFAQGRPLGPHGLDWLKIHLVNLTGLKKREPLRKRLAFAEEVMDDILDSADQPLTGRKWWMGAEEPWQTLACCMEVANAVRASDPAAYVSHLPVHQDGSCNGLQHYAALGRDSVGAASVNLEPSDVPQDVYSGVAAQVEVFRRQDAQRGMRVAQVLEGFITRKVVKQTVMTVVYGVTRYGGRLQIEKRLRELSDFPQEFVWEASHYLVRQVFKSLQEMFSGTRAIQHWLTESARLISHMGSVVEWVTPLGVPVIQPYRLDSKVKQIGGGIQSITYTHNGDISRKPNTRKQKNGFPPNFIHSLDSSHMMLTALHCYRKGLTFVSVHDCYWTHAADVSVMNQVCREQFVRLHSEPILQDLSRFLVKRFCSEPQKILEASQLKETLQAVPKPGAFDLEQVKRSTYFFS
Description: as §1

[2] = system: RNA polymerase II (RNA pol II); assay: Compound selectivity by real-time fluorescent quantitative PCR in A549 cells: gene regulated by RNA pol II; type: cell-based; conditions: for Expression of genes regulated by RNA pol II (β-actin): 72 h, qPCR ΔΔCt, significance by T-Test
Description: as §1

[3] = Pharmacokinetic assay in CD1 mice; type: in vivo; conditions: for F: bioavailability; for half-life: Table I-3, read-out: T1/2 (h) for oral administration (converted)
Description: pharmacokinetic assay of compounds was carried out in CD1 mice aged 6-8 weeks with IMT1B as a positive control. The compounds and the positive control were dissolved in 30% aqueous hydroxypropyl-β-cyclodextrin solution containing 25% PEG400 and administered via intravenous injection (1 mg/kg) or intragastric administration (5 mg/kg). Blood samples were collected at 0.033, 0.083, 0.25, 0.5, 1, 2, 4, 8, 24 h and 0.083, 0.25, 0.5, 1, 2, 4, 8, 24 h respectively after administration.
The concentration of the compounds in plasma samples was analyzed using the LC-MS/MS method. Pharmacokinetic calculations were performed using WinNonlin (Phoenix™, version 8.3) or other similar software. The following pharmacokinetic parameters were calculated from the plasma concentration vs. time data: for intravenous administration: T1/2, C0, AUClast, AUCinf, MRTinf, Cl, Vss, regression coefficient, etc.; for oral administration: T1/2, Cmax, Tmax, AUClast, AUCinf, bioavailability, etc. The above parameter data were statistically calculated and described using descriptive statistics such as mean value and standard deviation.

[4] = system: RNA polymerase III (RNA pol III); assay: Compound selectivity by real-time fluorescent quantitative PCR in A549 cells: gene regulated by RNA pol III; type: cell-based; conditions: for Expression of genes regulated by RNA pol III (5S): 72 h, qPCR ΔΔCt, significance by T-Test
Description: as §1

[5] = at the same dose (50 mpk, BID, intragastric)
[6] = main pharmacokinetic parameters, Table I-4
[7] = mouse, plasma, po, 5 mg/kg, main pharmacokinetic parameters, Table I-4
[8] = mouse, plasma, po, intragastric administration 5 mg/kg

Structure (SMILES)	pIC50 (A2780 cells; Homo sapiens, 168 h)	Expression of genes regulated by RNA pol I (18S, 28S) [1]	Expression of genes regulated by POLRMT (ND1, CYTB, COX1) (POLRMT)	Expression of genes regulated by RNA pol II (β-actin) [2]	F ([3]; Table I-4) [%]	T1/2 [3, 6] [h]	half-life [3, 8] [h]	Expression of genes regulated by RNA pol III (5S) [4]	further results
C[C@@H](Oc1ccc2c(-c3ccc(F)cc3Cl)cc(=O)oc2c1)C(=O)c1cccc(C(=O)O)c1 [Compound A1-1-5]	7.00 to 7.70	(-) ((-) represents P≥ 0.05)	(++) ((++) represents P < 0.01)	(-) ((-) represents P≥ 0.05)	85.846	3.158	3.16	(-) ((-) represents P≥ 0.05)	efficacy at a relatively low dose (MOLM-13-luc tumor cells; MOLM13 orthotopic hematological tumor model, BID intragastric): effective at a relatively low dose; tumor inhibitory effect (BLI imaging) (MOLM-13-luc tumor cells; MOLM13 orthotopic hematological tumor model, BID intragastric, 25 and 50 mpk): good tumor inhibitory effect; median survival time compared with IMT1B (MOLM-13-luc tumor cells; [5]): significantly superior to IMT1B; tumor inhibition compared with IMT1B (MOLM-13-luc tumor cells; [5]): significantly superior to IMT1B; maximum plasma concentration Cmax compared with IMT1B ([3]; comparison in words): significantly superior to IMT1B; plasma exposure AUC compared with IMT1B ([3]; comparison in words): significantly superior to IMT1B; AUC(0-inf) [3, 7]: 179 µg·h/mL; AUC(0-t) [3, 7]: 178 µg·h/mL; Cmax ([3]; mouse, plasma, po, 5 mg/kg, main pharmacokinetic parameters, Table I-4, read-out: Cmax): 44100 ng/mL
C[C@@H](Oc1ccc2c(-c3ccc(F)cc3Cl)cc(=O)oc2c1)C(=O)N1CCC[C@H](C(=O)O)C1 [IMT1B, reference compound]		(-) ((-) represents P≥ 0.05)	(++) ((++) represents P < 0.01)	(-) ((-) represents P≥ 0.05)	80.236	2.445		(-) ((-) represents P≥ 0.05)	pIC50 (A2780 cells): 7.00 to 7.70; inhibition of the activity of RNA polymerase I ([1]; qPCR, in words): do not inhibit; inhibition of the activity of RNA polymerase II ([2]; qPCR, in words): do not inhibit; T1/2 (h) for oral administration ([3]; intragastric administration 5 mg/kg, Table I-3): 2.445 h; AUCInf [3, 6]: 24.420076 µg·h/mL; AUClast [3, 6]: 24.389836 µg·h/mL; Cmax [3, 6]: 7300 ng/mL; inhibition of the activity of RNA polymerase III ([4]; qPCR, in words): do not inhibit
CC(Oc1ccc2c(-c3ccc(F)cc3Cl)cc(=O)oc2c1)C(=O)C1CCC(C(=O)[O-])CC1.[Na+] (stereo not drawn) [α-10]	> 7.70						4.29		
CC(Oc1ccc2c(-c3ccc(F)cc3Cl)cc(=O)oc2c1)C(=O)C1CCNCC1 (stereo not drawn) [α-11]	7.00 to 7.70						5.27		
CC(Oc1ccc2c(-c3ccc(F)cc3Cl)cc(=O)oc2c1)C(=O)c1ccncc1 (stereo not drawn) [α-13]	7.00 to 7.70						6.91		

From US20260200885A1, “BENZOPYRONE COMPOUNDS AS WELL AS PREPARATION METHOD THEREFOR AND USE THEREOF” (CHENGDU DI’AO JIUHONG PHARMACEUTICAL FACTORY, priority 2022, published 2026)
